Like-named read-outs stand apart in the source and are kept apart here.
Assays:
[1] = In vivo pharmacokinetics of valsartan in rat plasma, with or without abdominal X-ray irradiation; parameters: species or system Sprague Dawley (SD) rats; conditions: for AUC(0-inf) / Cmax / AUC(0-t) / MRT last / Tmax / half-life: male, Sprague-Dawley, rat, plasma, po, 10 mg/kg; for AUC(0-t): read-out: AUC0–24h; for MRT last: read-out: MRT0–24h; for half-life / t1/2: valsartan 10 mg/kg by gavage, Mean ± SD, n = 6
Experimental: Valsartan was administered by gavage (10 mg/kg) after forming a homogeneous suspension (2 mg/mL) with 1% CMC-Na by grinding and stirring. Before and after administration (0.083, 0.25, 0.5, 1, 2, 4, 6, 8, 12, and 24 h), the rats in group A (n = 6) and group B (n = 6) were anesthetized with isoflurane. Blood samples were collected by the orbital blood sampling method, and whole blood was collected by blood collection tubes coated with heparin sodium. Plasma samples were obtained by centrifugation at 16,260× g for 10 min. Quantitative analysis of LC-MS/MS results was performed using Analyst 1.6.3 program. The pharmacokinetic parameters were calculated using the WinNonlin 8.3 program. SPSS Statistic 20.0 software was used for statistical analysis. One-way ANOVA was used for comparison among multiple groups, and p < 0.05 was considered statistically significant. GraphPad Prism 8.0.2 software was used for generating figures.

[2] = parameters: method as in PMID 28507434; conditions: cited from earlier work
[3] = Ex vivo inverted intestinal sac absorption study; assay type: in vitro ADME, Sprague Dawley (SD) rats; conditions: for concentration of valsartan in the intestinal sac at the final time point: KRB buffer 37 °C containing 10 mM VAL, n = 6
Experimental: Six rats in groups A and B were anesthetized with isoflurane, followed by the opening of the abdominal cavity to separate a 10 cm segment of the jejunum. The distal end of the jejunal segment was ligated in Krebs–Ringer Solution (KRB), and the resulting intestinal sac was turned inside out from the proximal end to form an inverted intestinal sac. Subsequently, 1 mL of KRB buffer at 37 °C was added to the inverted intestinal sac, which was then equilibrated in oxygen-saturated KRB buffer (37 °C) for 5 min. The flipped intestinal sac was transferred to oxygen-saturated KRB buffer (37 °C) containing 10 mM VAL, initiating the timing process. At different time points, 50 μL of solution from the flipped intestinal sac was aspirated and supplemented with an equal volume (50 μL) of blank KRB buffer.

[4] = VAL bile secretion assay in bile duct cannulated rats; assay type: in vivo, Sprague Dawley (SD) rats; conditions: 10 mg/kg by gavage
Text: For the VAL bile secretion assay, six rats in each group, A and B, underwent bile duct cannulation prior to administration. After anesthesia, the abdominal cavity of the rats was opened, followed by separation and ligation of the distal end of the common bile duct. A small opening was made at the front end of the ligation to insert a catheter, which was then ligated and fixed before suturing the abdominal cavity. Bile was collected through a catheter. The rats were maintained under anesthesia with intraperitoneal injection of normal saline and glucose to ensure stable vital signs. Following surgery, valsartan (10 mg/kg) was administered via gavage, and bile samples were collected at different time points post-administration. The collected bile samples were mixed with 50% methanol–water (ratio 1:9), centrifuged to obtain the supernatant for analysis.

[5] = cited from earlier work
[6] = VAL urinary and fecal excretion assay (metabolic cages); conditions: rats, 10 mg/kg by gavage
Experimental: Male Sprague Dawley (SD) rats (weight 200 ± 20 g) were purchased from Beijing Vital River Laboratory Animal Co., LTD. […] The rats were fed a maintenance diet and had free access to water. All rats were adaptively fed for three days before the experiment and randomly divided into a control group (A) and irradiation group (B). There were 6 rats in group A and B in each study. […] The samples collected were processed and then stored at −80 °C until analysis.
For the VAL urinary and fecal excretion assay, six rats in each group, A and B, were randomly assigned to metabolic cages and administered valsartan (10 mg/kg) via gavage. […] The resulting supernatant was collected as the analytical samples.
The excretion of valsartan was calculated by the concentration and sample volume (or weight), and the fractional excretion of valsartan and the cumulative excretion fraction of valsartan in each time period were obtained through comparison with the corresponding dose administered to the rat.

[7] = parameters: method as in PMID 28438473, PMID 22204725, PMID 27749456; conditions: clinical studies; cited from earlier work
[8] = 10 mg/kg by gavage, Control group
[9] = IR-5 Gy vs control, 10 mg/kg by gavage, p < 0.05
[10] = IR-5 Gy (abdominal X-ray 24 h before)

Q: Which results are given for CCCCC(=O)N(Cc1ccc(-c2ccccc2-c2nnn[nH]2)cc1)[C@H](C(=O)O)C(C)C [valsartan, Valsartan]?
A: CL [1, 8]: 20 ± 5.87 mL/min/kg; Vd [1, 8]: 6.254 ± 2.349 L/kg; CL ([1]; 10 mg/kg by gavage, IR-5 Gy): 35.33 ± 18.5 mL/min/kg; Vd ([1]; 10 mg/kg by gavage, IR-5 Gy): 14.668 ± 9.456 L/kg; prolongation of plasma half-life (t1/2) in the IR group ([1]; IR-5 Gy vs control, 10 mg/kg by gavage): 41%; decrease of AUC0–24h in the IR group [1, 9]: 37%; decrease of Cmax in the IR group [1, 9]: 52%; AUC(0-inf) [1, 8]: 8810 ± 2010 ng·h/mL; Cmax [1, 8]: 4430 ± 1260 ng/mL; AUC(0-t) [1, 8]: 8460 ± 1840 ng·h/mL; MRT last [1, 8]: 3.84 ± 0.724 h; Tmax ([1]; 10 mg/kg by gavage, Control group, read-out: Tmax): 0.25 h; Tmax ([1]; 10 mg/kg by gavage, Figure 1, read-out: time of peak plasma concentration): ~0.25 h; AUC(0-inf) ([1]; 10 mg/kg by gavage, IR-5 Gy): 5470 ± 1790 ng·h/mL; Cmax ([1]; 10 mg/kg by gavage, IR-5 Gy): 2130 ± 878 ng/mL; AUC(0-t) ([1]; 10 mg/kg by gavage, IR-5 Gy): 5270 ± 1830 ng·h/mL; MRT last ([1]; 10 mg/kg by gavage, IR-5 Gy): 4.52 ± 1.63 h; Tmax ([1]; 10 mg/kg by gavage, IR-5 Gy, read-out: Tmax): 0.222 ± 0.068 h; half-life ([1]; Control group): 3.57 h; half-life [1, 10]: 5.03 h; t1/2 ([1]; Control group): 3.568 ± 0.411 h; t1/2 [1, 10]: 5.032 ± 2.656 h; bioavailability [2]: 23%; concentration of valsartan in the intestinal sac at the final time point ([3]; IR group): 127 ± 32.94 ng/mL; concentration of valsartan in the intestinal sac at the final time point ([3]; control group): 205.6 ± 51.72 ng/mL; reduction of valsartan concentration in the intestinal sac, IR vs control ([3]; final time point): 38%; cumulative fractional bile excretion ([4]; IR group, 15 h): 10.83 % of the dose; cumulative fractional bile excretion ([4]; IR group, 18 h): 11.52 % of the dose; cumulative fractional bile excretion ([4]; IR group, 24 h): 12.67 % of the dose; cumulative fractional bile excretion ([4]; control group, 15 h): 22.89 % of the dose; cumulative fractional bile excretion ([4]; control group, 18 h): 26.24 % of the dose; cumulative fractional bile excretion ([4]; control group, 24 h): 31.26 % of the dose; fraction absorbed into the liver, secreted into the bile and passed into the feces along with unabsorbed valsartan [5]: > 80%; amount excreted in the urine ([6]; Figure 2D): very small amount; cumulative excretion in feces ([6]; group not stated): 83%

Q: With bevacizumab as the compound, how does the “incidence of hypertension associated with treatment” value [7] read?
A: 26% to 55
